From patent publication US20250215029A1 (Recludix Pharma, Inc., priority 2022, published 2025)
Where two headings read alike, the source gives them in different places.

Columns and labels:
[1] = target: T1, Recombinant STAT3 protein (STAT3 (G127-I722)) (Homo sapiens, UniProt P40763); assay: STAT3 Fluorescence Polarization (FP) Assay; format: binding; details: probe 5-FAM-GpYLPQTV-NH2 2 nM, 45-minute incubation
T1 construct: Recombinant STAT3 protein (STAT3 (G127-I722))
In short: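 In this competition FP format, STAT3 residues G127-I722 (25 nM) and 2 nM 5-FAM-GpYLPQTV-NH2 met test compounds for 45 min at room temperature. IC50 values result from fitting mP signal against log concentration by nonlinear regression.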

[2] = target: T2, Recombinant STAT6 protein (STAT6 (W123-T658)) (Homo sapiens, UniProt P42226); assay: STAT6 Fluorescence Polarization (FP) Assay; format: binding; details: probe 5-FAM-Ap[…]-NH2 2 nM, 45-minute incubation
T2 construct: Recombinant STAT6 protein (STAT6 (W123-T658))
T2 sequence (P42226 123-658): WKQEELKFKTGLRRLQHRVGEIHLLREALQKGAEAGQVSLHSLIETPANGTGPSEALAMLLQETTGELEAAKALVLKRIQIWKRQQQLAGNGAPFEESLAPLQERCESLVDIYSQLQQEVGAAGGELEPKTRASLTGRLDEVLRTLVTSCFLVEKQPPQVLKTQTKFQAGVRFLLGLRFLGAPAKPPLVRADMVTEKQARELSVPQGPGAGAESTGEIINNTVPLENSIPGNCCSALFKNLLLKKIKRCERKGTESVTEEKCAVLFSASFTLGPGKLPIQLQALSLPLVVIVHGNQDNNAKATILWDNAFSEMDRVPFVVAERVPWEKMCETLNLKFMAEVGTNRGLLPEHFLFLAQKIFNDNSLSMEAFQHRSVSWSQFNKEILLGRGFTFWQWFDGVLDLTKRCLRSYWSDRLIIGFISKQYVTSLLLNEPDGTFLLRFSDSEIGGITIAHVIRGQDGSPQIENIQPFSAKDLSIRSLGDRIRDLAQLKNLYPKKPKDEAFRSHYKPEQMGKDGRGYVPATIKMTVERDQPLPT
In short: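 Fluorescence polarization (mP) read-out: 250 nM STAT6 (W123-T658) plus 2 nM 5-FAM phosphotyrosine peptide, 45 min, room temperature, 1% DMSO. IC50 by nonlinear fit of mP against log compound concentration.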

[3] = STAT3 (G127-I722) 25 nM, read-out: STAT3 (FP assay IC50 class)
[4] = STAT6 (W123-T658) 250 nM, read-out: STAT6 (FP assay IC50 class)
[5] = STAT3 25 nM, read-out: STAT3 (FP assay IC50)
[6] = STAT6 250 nM, read-out: STAT6 (FP assay IC50)

T1 sequence (P40763 127-722): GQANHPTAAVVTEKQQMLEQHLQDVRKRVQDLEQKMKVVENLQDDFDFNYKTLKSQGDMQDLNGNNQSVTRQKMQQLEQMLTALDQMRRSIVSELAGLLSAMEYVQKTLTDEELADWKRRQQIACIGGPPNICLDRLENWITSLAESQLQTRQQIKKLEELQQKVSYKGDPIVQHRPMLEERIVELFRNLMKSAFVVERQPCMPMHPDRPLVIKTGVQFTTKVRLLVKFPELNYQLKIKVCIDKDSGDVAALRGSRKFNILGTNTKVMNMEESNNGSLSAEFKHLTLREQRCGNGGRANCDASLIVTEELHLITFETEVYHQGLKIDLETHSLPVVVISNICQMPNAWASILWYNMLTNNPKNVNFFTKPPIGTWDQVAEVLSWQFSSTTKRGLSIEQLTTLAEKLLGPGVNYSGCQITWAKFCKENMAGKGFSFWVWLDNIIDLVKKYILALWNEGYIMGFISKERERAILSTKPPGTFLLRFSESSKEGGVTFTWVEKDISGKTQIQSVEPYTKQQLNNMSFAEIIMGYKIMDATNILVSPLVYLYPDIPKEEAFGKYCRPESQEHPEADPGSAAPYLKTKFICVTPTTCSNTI

IC50 [1, 3] | IC50 [2, 4] | IC50 [1, 5] | IC50 [2, 6] | SMILES
< 0.1 µM | 0.3 to 3 µM |  |  | C/C1=C/C[C@H](NC(=O)c2cc3cc(C(F)(F)P(=O)(O)O)ccc3s2)C(=O)N2[C@H](CC[C@H]2C(=O)N2CC(c3cnccc3C)C2)C1 [Compound 641, (difluoro(2-(((3S,6S,10aR,Z)-9-methyl-3-(3-(4-methylpyridin-3-yl)azetidine-1-carbonyl)-5-oxo-1,2,3,5,6,7,10,10a-octahydropyrrolo[1,2-a]azocin-6-yl)carbamoyl)benzo [b]thiophen-5-yl)methyl) phosphonic acid]
 |  | < 0.1 µM | 3 to 30 µM | O=C(N[C@H]1CCC[C@H]2CC[C@@H](C(=O)N3CC(c4ncccn4)C3)N2C1=O)c1cc2cc(C(F)(F)P(=O)(O)O)ccc2s1 [Compound 46, (difluoro(2-(((3S,6S,9aS)-5-oxo-3-(3-(pyrimidin-2-yl)azetidine-1-carbonyl)octahydro-1H-pyrrolo[1,2-a]azepin-6-yl)carbamoyl)benzo[b]thiophen-5-yl)methyl) phosphonic acid]
0.1 to 1 µM | 3 to 30 µM |  |  | O=C(N[C@H]1CCC[C@H]2CC[C@@H](C(=O)N3CC(n4cnccc4=O)C3)N2C1=O)c1cc2cc(C(F)P(=O)(O)O)ccc2s1 (stereo partly drawn) [Compound 609, (fluoro(2-(((3S,6S,9aS)-5-oxo-3-(3-(6-oxopyrimidin-1(6H)-yl)azetidine-1-carbonyl)octahydro-1H-pyrrolo[1,2-a]azepin-6-yl)carbamoyl)benzo [b]thiophen-5-yl)methyl) phosphonic acid]
1 to 10 µM | 3 to 30 µM |  |  | COC(=O)N1CC(NC(=O)[C@@H]2CC[C@@H]3CCCC[C@H](NC(=O)c4cc5cc(C(F)P(=O)(O)O)ccc5s4)C(=O)N32)C1 (stereo partly drawn) [Compound 523]
 |  | 0.1 to 1 µM | 0.3 to 3 µM | O=C(N[C@H]1CCCC[C@H]2CC[C@@H](C(=O)NCc3n[nH]c4ncccc34)N2C1=O)c1cc2cc(C(F)(F)P(=O)(O)O)ccc2s1 [Compound 37, ((2-(((3S,6S,10aS)-3-(((1H-pyrazolo[3,4-b]pyridin-3-yl)methyl)carbamoyl)-5-oxodecahydro-pyrrolo[1,2-a]azocin-6-yl)carbamoyyl)benzo[b]thiophen-5-yl)difluoro-methyl) phosphonic acid]
< 0.1 µM | 0.3 to 3 µM |  |  | Cn1ccnc1C1CN(C(=O)[C@@H]2CC[C@@H]3CCC[C@H](NC(=O)c4cc5cc(C(F)(F)P(=O)(O)O)ccc5s4)C(=O)N32)C1 [Compound 799, (difluoro(2-(((3S,6S,9aS)-3-(3-(1-methyl-1H-imidazol-2-yl)azetidine-1-carbonyl)-5-oxooctahydro-1H-pyrrolo[1,2-a]azepin-6-yl)carbamoyl)benzo [b]thiophen-5-yl)methyl) phosphonic acid]
0.1 to 1 µM | 3 to 30 µM |  |  | CC(c1ccc2sc(C(=O)N[C@H]3CCC[C@H]4CC[C@@H](C(=O)N5CC(c6cccnc6)C5)N4C3=O)cc2c1)P(=O)(O)O (stereo partly drawn) [Compound 896, (1-(2-(((3S,6S,9aS)-5-oxo-3-(3-(pyridin-3-yl)azetidine-1-carbonyl)octahydro-1H-pyrrolo[1,2-a]azepin-6-yl)carbamoyl)benzo [b]thiophen-5-yl)ethyl) phosphonic acid]
1 to 10 µM | 3 to 30 µM |  |  | O=C(N[C@H]1CCC[C@H]2CC[C@@H](C(=O)N3CC(c4ncc(C5CC5)cn4)C3)N2C1=O)c1cc2cc(C(F)(F)P(=O)(O)O)ccc2s1 [Compound 817, ((2-(((3S,6S,9aS)-3-(3-(5-cyclopropyl-pyrimidin-2-yl)azetidine-1-carbonyl)-5-oxooctahydro-1H-pyrrolo[1,2-a]azepin-6-yl)carbamoyl)benzo [b]thiophen-5-yl)difluoromethyl) phosphonic acid]
< 0.1 µM | 3 to 30 µM |  |  | O=C(N[C@H]1CCC[C@H]2CC[C@@H](C(=O)N3CC(c4cnccc4N4CCOCC4)C3)N2C1=O)c1cc2cc([C@@H](F)P(=O)(O)O)ccc2s1 (single isomer, unassigned) [Compound 745]
< 0.1 µM | 3 to 30 µM |  |  | N#Cc1cccc(C2CN(C(=O)[C@@H]3CC[C@@H]4CCC[C@H](NC(=O)c5cc6cc(C(F)P(=O)(O)O)ccc6s5)C(=O)N43)C2)n1 (stereo partly drawn) [Compound 526]
 |  | < 0.1 µM | 0.3 to 3 µM | O=C(N[C@H]1CC[C@H](O)C[C@H]2CC[C@@H](C(=O)N3CC(c4cccnc4)C3)N2C1=O)c1cc2cc(C(F)(F)P(=O)(O)O)ccc2s1 [Compound 16, (difluoro(2-(((3S,6S,9S,10aR)-9-hydroxy-5-oxo-3-(3-(pyridin-3-yl)azetidine-1-carbonyl)decahydropyrrolo[1,2-a]azocin-6-yl)carbamoyl)benzo[b]thiophen-5-yl)methyl) phosphonic acid]
 |  | < 0.1 µM | 3 to 30 µM | O=C(N[C@H]1CC2(CC[C@H]3CC[C@@H](C(=O)N4CC(C(=O)N5CCOCC5)C4)N3C1=O)CC2)c1cc2cc(C(F)(F)P(=O)(O)O)ccc2s1 [Compound 115, (difluoro(2-(((3′S,6′S, 10a′S)-3′-(3-(morpholine-4-carbonyl)azetidine-1-carbonyl)-5′-oxooctahydro-5′H-spiro [cyclopropane-1,8′-pyrrolo[1,2-a]azocin]-6′-yl)carbamoyl)benzo[b]thiophen-5-yl)methyl) phosphonic acid]
< 0.1 µM | 3 to 30 µM |  |  | O=C(N[C@H]1CCC[C@H]2CC[C@@H](C(=O)N3CC(c4cnccc4N4CCOCC4)C3)N2C1=O)c1cc2cc([C@H](F)P(=O)(O)O)ccc2s1 (single isomer, unassigned) [Compound 746]
 |  | 0.1 to 1 µM | 0.3 to 3 µM | N#C[C@@H]1CN(C(=O)[C@@H]2CC[C@@H]3CCCC[C@H](NC(=O)c4cc5cc(C(F)(F)P(=O)(O)O)ccc5s4)C(=O)N32)C[C@H]1C1CC1 (relative stereo) [Compound 102, ((2-(((3S,6S,10aS)-3-(rel-(trans)-3-cyano-4-cyclopropyl-pyrrolidine-1-carbonyl)-5-oxodecahydropyrrolo [1,2-a]azocin-6-yl)carbamoyl)benzo[b]thiophen-5-yl)difluoromethyl) phosphonic acid]
 |  | < 0.1 µM | 3 to 30 µM | O=C(N[C@H]1CCC2(CC2)C[C@H]2CC[C@@H](C(=O)N3CC(C(=O)N4CCOCC4)C3)N2C1=O)c1cc2cc(C(F)(F)P(=O)(O)O)ccc2s1 [Compound 114, (difluoro(2-(((3′S,6′S, 10aR)-3′-(3-(morpholine-4-carbonyl)azetidine-1-carbonyl)-5′-oxooctahydro-1′H-spiro [cyclopropane-1,9′-pyrrolo[1,2-a]azocin]-6′-yl)carbamoyl)benzo[b]thiophen-5-yl)methyl) phosphonic acid]
0.1 to 1 µM | 3 to 30 µM |  |  | Cc1ccncc1C1CN(C(=O)[C@@H]2CC[C@@H]3CCC[C@H](NC(=O)c4cc5cc(CP(=O)(O)O)ccc5s4)C(=O)N32)C1 [Compound 214, ((2-(((3S,6S,9aS)-3-(3-(4-methylpyridin-3-yl)azetidine-1-carbonyl)-5-oxooctahydro-1H-pyrrolo[1,2-a]azepin-6-yl)carbamoyl)benzo[b]thiophen-5-yl)methyl)phosphonic acid]
 |  | < 0.1 µM | 3 to 30 µM | CC1CCC[C@H](NC(=O)c2cc3cc(C(F)(F)P(=O)(O)O)ccc3s2)C(=O)N2[C@@H]1CC[C@H]2C(=O)N1CC(c2cccnc2)C1 (stereo partly drawn) [Compound 103, (difluoro(2-(((3S,6S,10aR)-10-methyl-5-oxo-3-(3-(pyridin-3-yl)azetidine-1-carbonyl)decahydropyrrolo [1,2-a]azocin-6-yl)carbamoyl)benzo[b]thiophen-5-yl)methyl) phosphonic acid]
1 to 10 µM | ≤ 0.3 µM |  |  | N#C[C@@H]1CN(C(=O)[C@@H]2CCC[C@@H]3CCC[C@H](NC(=O)c4cc5cc(C(F)P(=O)(O)O)ccc5s4)C(=O)N32)C[C@H]1c1ccccc1 (relative stereo) [Compound 551, ((2-(((4S,7S,10aS)-4-((rel-trans)-3-cyano-4-phenylpyrrolidine-1-carbonyl)-6-oxodecahydropyrido[1,2-a]azepin-7-yl)carbamoyl)benzo[b]thiophen-5-yl)fluoromethyl)phosphonic acid]
